Results reported in PubChem BioAssay (NCI).
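Each compound was tested at five concentrations against cells in 96-well plates for 48 hours. Here, GI50 denotes the concentration required for 50% inhibition of growth. TGI: concentration producing complete growth inhibition.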

How the values were obtained:
Assay in all cases: NCI-60 cell line screen, 48 h
[1] = tested on: HL-60(TB) leukemia
[2] = tested on: SNB-75 CNS
[3] = tested on: 786-0 renal
[4] = tested on: SNB-19 CNS
[5] = tested on: HCT-15 colon
[6] = tested on: SF-539 CNS
[7] = tested on: NCI-H460 lung
[8] = tested on: U251 CNS
[9] = tested on: M14 melanoma
[10] = tested on: OVCAR-3 ovarian

| Structure (SMILES) | GI50 [1] | TGI [1] | GI50 [2] | TGI [2] | GI50 [3] | TGI [3] | GI50 [4] | TGI [4] | GI50 [5] | TGI [5] | GI50 [6] | TGI [6] | GI50 [7] | TGI [7] | GI50 [8] | TGI [8] | GI50 [9] | TGI [9] | GI50 [10] | TGI [10] |
| --- | --- | --- | --- | --- | --- | --- | --- | --- | --- | --- | --- | --- | --- | --- | --- | --- | --- | --- | --- | --- |
| COc1ccc2cc(-c3c(-c4ccncc4)nc(-c4ccc(S(C)(=O)=O)cc4C)n3C)ccc2c1 | 6.54 µM | 21.7 µM | 6.67 µM | > 25 µM | 11.4 µM | > 25 µM | 9.04 µM | > 25 µM | 7.97 µM | > 25 µM | 10.8 µM | > 25 µM | 7.77 µM | > 25 µM | 11.2 µM | > 25 µM | 10.1 µM | > 25 µM | 6.97 µM | > 23.5 µM |
| O=C1c2cc(Cl)ccc2-c2c1c1ccc([N+](=O)[O-])cc1c(=O)n2CCCBr | 1.26 µM | 5.71 µM | 5.96 µM | 64.2 µM | 2.62 µM | 9.31 µM | 3.74 µM | > 100 µM | 31.2 µM | > 100 µM | 3.94 µM | > 100 µM | 0.931 µM | > 100 µM | 3.07 µM | > 100 µM | 3.91 µM | 64.2 µM | 36.6 µM | > 100 µM |
| Cc1cc2c(cc1Cl)SC1=NN(C)C(N(C)C)N1S2(=O)=O (stereo not given) | > 100 µM | > 100 µM | 86.4 µM | > 100 µM | > 100 µM | > 100 µM | > 100 µM | > 100 µM | > 100 µM | > 100 µM | > 100 µM | > 100 µM | > 100 µM | > 100 µM | > 100 µM | > 100 µM | > 100 µM | > 100 µM | > 100 µM | > 100 µM |
| CC(CCC(=O)O)C(=O)O (stereo not given) |  | > 100 µM |  | > 100 µM |  | > 100 µM |  | > 100 µM |  | > 100 µM |  | > 100 µM |  | > 100 µM |  | > 100 µM |  | > 100 µM |  | > 100 µM |
| CCn1c2ccc(O)cc2c2c(C)c3c[n+](C)ccc3c(C)c21 | 40.8 µM | > 100 µM | 1.18 µM | 35.8 µM | 0.52 µM | > 100 µM | 0.272 µM | 6.88 µM | 29.4 µM | > 100 µM | 0.873 µM | 14.8 µM | 0.752 µM | 11 µM | 0.307 µM | 9.72 µM | 4.4 µM | 29.2 µM | 3.59 µM | 32.4 µM |
| O=C(O)C1CCCCC1C(=O)O.[NH-]C1CCC1.[NH2-].[Pt+2] (stereo not given) | 5.98 µM | 52.8 µM | 84.6 µM | > 100 µM | 15.4 µM | 33 µM | > 100 µM | > 100 µM | 17.3 µM | 34.5 µM | 17 µM | 33.2 µM | 22.7 µM | > 100 µM | 58 µM | > 100 µM | 12.6 µM | 27.3 µM | 15.8 µM | 30.4 µM |
| NC(=S)NNc1c([N+](=O)[O-])cnn(-c2ccccc2)c1=O |  | 19.3 µM |  | 34.1 µM |  | 35.1 µM |  | 33.9 µM |  | 32 µM |  | 34 µM |  | 34 µM |  | 30.7 µM |  | 28.4 µM |  | 32.1 µM |
